{
  "source": "patent US20260248832A1",
  "about": "“COMPOSITION COMPRISING CYTIDINE ANALOGS AND USES AND METHODS THEREOF” (UNIVERSITÄT HEIDELBERG, priority 2022, published 2026)",
  "type_in_all_cases": "physicochemical",
  "key": {"[1]": {"test": "Stability of decitabine in aqueous media (HPLC)", "settings": "DMSO stock mixed 1:2 with 20 mM ammonium acetate pH 6.8; room temperature (about 25° C.); up to 14 days", "experimental": "(§1) Chem Res Toxicol 2009; 22 (6): 1194-204.\n(§2) • 1. […] Immediate Injection • 3. […] Chem Res Toxicol 2009; 22 (6): 1194-204.\nTo test the stability of β-decitabine in an aqueous medium, two stock solutions of β-decitabine in DMSO were prepared and mixed 1:2 with the HPLC mobile phase (20 mM ammonium acetate pH 6.8). The samples were stored at room temperature (about 25° C.) and their content of β-decitabine, which is considered to represent the active anomer of decitabine, was measured for up to 14 days."}, "[2]": {"test": "Solubility of decitabine in different non-aqueous media", "settings": "DMSO", "experimental": "Due to the unsuitability of aqueous media, different non-aqueous media were tested with regard to the solubility of decitabine in the non-aqueous media. As decitabine is a nucleoside, several polar, water-free solvents, that would be well suited for further formulation experiments, were selected to determine the solubility of decitabine. […] Therefore, the DMSO stock was chosen as the next candidate for stability and formulation testing."}, "[3]": {"test": "Long-term stability of decitabine in DMSO (HPLC)", "settings": "3 mM stock in DMSO; room temperature and 2-8° C.; almost three months", "experimental": "as §1, §2\nA 3 mM stock solution of decitabine in DMSO was prepared and one aliquot each was stored at room temperature and at 2-8° C. Its β-decitabine concentration was determined by HPLC for almost three months."}},
  "data": [
    {"smiles": "Nc1ncn([C@H]2C[C@H](O)[C@@H](CO)O2)c(=O)n1", "note": "[decitabine, 5-aza-2′-deoxycytidine]", "values": [
      {"measurement": "stability of β-decitabine in aqueous medium", "setting": "[1]", "result": "observed instability"},
      {"measurement": "solubility", "setting": "[2]; organic solvent or mixture", "result": "~46", "unit": "mg/mL"},
      {"measurement": "solubility of decitabine for relevant dosage strengths", "setting": "[2]; four tested solvents: glycerol, PEG 300, absolute ethanol", "result": "only DMSO showed sufficient solubility"},
      {"measurement": "change in β-decitabine concentration in DMSO", "setting": "[3]", "result": "almost no change"}
    ]}
  ]
}
